Results published in the NIST ThermoML archive (doi:10.1016/j.jct.2008.10.010).
± gives the expanded uncertainty stated by the source.

Assays:
[1] = refractive index (Na D-line) (dimensionless); conditions: 298.15 K; 101.33 kPa; Liquid; Standard Abbe refractometry
[2] = 298.15 K; 101.33 kPa; Liquid; Pycnometric method
[3] = molar heat capacity at constant pressure; conditions: 101.33 kPa, Liquid, Small sample (50 mg) DSC

CCC(C)(C)O [2-methylbutan-2-ol]
Conditions	mass density [kg/m3]	refractive index
[1]	–	1.4025 ± 0.0008
[2]	804.32 ± 0.79	–

[3]
Conditions	molar heat capacity at constant pressure [J/K/mol]
284.14 K	233.4 ± 3.6
285.15 K	234.44 ± 3.6
286.16 K	235.36 ± 3.6
287.14 K	236.15 ± 3.7
288.15 K	237.23 ± 3.7
289.14 K	238.19 ± 3.7
290.14 K	239.11 ± 3.7
291.15 K	240.18 ± 3.7
292.14 K	241.19 ± 3.7
293.14 K	242.22 ± 3.8
294.15 K	243.25 ± 3.8
295.14 K	244.25 ± 3.8
296.14 K	245.3 ± 3.8
297.15 K	246.36 ± 3.8
298.14 K	247.43 ± 3.8
298.15 K	247.44 ± 3.8
298.16 K	247.45 ± 3.8
299.14 K	248.43 ± 3.9
300.15 K	249.45 ± 3.9
301.14 K	250.56 ± 3.9
302.14 K	251.71 ± 3.9
303.15 K	252.8 ± 3.9
304.14 K	253.86 ± 3.9
305.14 K	255.01 ± 4
306.15 K	256.09 ± 4
307.16 K	257.16 ± 4
308.14 K	258.22 ± 4
309.15 K	259.29 ± 4
310.16 K	260.36 ± 4
311.14 K	261.32 ± 4
312.15 K	262.41 ± 4.1
313.16 K	263.51 ± 4.1
314.14 K	264.5 ± 4.1
315.15 K	265.53 ± 4.1
316.16 K	266.49 ± 4.1
317.14 K	267.5 ± 4.1
318.15 K	268.57 ± 4.2
319.15 K	269.56 ± 4.2
320.14 K	270.43 ± 4.2
321.15 K	271.49 ± 4.2
322.15 K	272.37 ± 4.2
323.14 K	273.32 ± 4.2
324.15 K	274.25 ± 4.2
325.15 K	275.15 ± 4.3
326.14 K	276.09 ± 4.3
327.15 K	276.89 ± 4.3
328.15 K	277.86 ± 4.3
329.14 K	278.7 ± 4.3
330.14 K	279.59 ± 4.3
331.15 K	280.35 ± 4.3
332.14 K	281.18 ± 4.4
333.14 K	282.05 ± 4.4
334.15 K	283 ± 4.4
335.14 K	283.68 ± 4.4
336.14 K	284.35 ± 4.4
337.15 K	285.19 ± 4.4
338.14 K	285.94 ± 4.4
339.14 K	286.59 ± 4.4
340.15 K	287.37 ± 4.5
341.13 K	287.88 ± 4.5
342.14 K	288.59 ± 4.5
343.15 K	289.15 ± 4.5
344.16 K	289.83 ± 4.5
345.14 K	290.42 ± 4.5
346.15 K	290.94 ± 4.5
347.16 K	291.42 ± 4.5
348.14 K	292.03 ± 4.5
349.15 K	292.61 ± 4.5
350.16 K	293.03 ± 4.5
351.14 K	293.51 ± 4.5
352.15 K	293.87 ± 4.5
353.15 K	294.39 ± 4.6
354.15 K	294.87 ± 4.6
355.13 K	295.24 ± 4.6
356.14 K	295.66 ± 4.6
357.15 K	296.1 ± 4.6
358.15 K	296.36 ± 4.6
359.14 K	296.72 ± 4.6
360.15 K	296.98 ± 4.6
361.15 K	297.18 ± 4.6
362.15 K	297.48 ± 4.6
363.14 K	297.69 ± 4.6
364.15 K	297.95 ± 4.6
365.15 K	298.16 ± 4.6
366.14 K	298.39 ± 4.6
367.15 K	298.46 ± 4.6
368.15 K	298.75 ± 4.6
368.76 K	298.79 ± 4.6

OC1CCCC1 [cyclopentanol]
Conditions	mass density [kg/m3]	refractive index
[1]	–	1.4512 ± 0.0008
[2]	942.86 ± 0.95	–

[3]
Conditions	molar heat capacity at constant pressure [J/K/mol]
284.16 K	170.24 ± 2.6
285.15 K	170.99 ± 2.6
286.16 K	171.81 ± 2.7
287.14 K	172.53 ± 2.7
288.15 K	173.41 ± 2.7
289.16 K	174.28 ± 2.7
290.14 K	175.01 ± 2.7
291.15 K	175.87 ± 2.7
292.16 K	176.75 ± 2.7
293.14 K	177.58 ± 2.8
294.15 K	178.43 ± 2.8
295.16 K	179.3 ± 2.8
296.14 K	180.09 ± 2.8
297.15 K	180.97 ± 2.8
298.14 K	181.8 ± 2.8
298.15 K	181.82 ± 2.8
298.16 K	181.83 ± 2.8
299.14 K	182.68 ± 2.8
300.15 K	183.51 ± 2.8
301.16 K	184.44 ± 2.9
302.14 K	185.33 ± 2.9
303.15 K	186.22 ± 2.9
304.16 K	187.09 ± 2.9
305.14 K	188.03 ± 2.9
306.15 K	188.94 ± 2.9
307.16 K	189.83 ± 2.9
308.14 K	190.71 ± 3
309.15 K	191.61 ± 3
310.16 K	192.53 ± 3
311.14 K	193.42 ± 3
312.15 K	194.35 ± 3
313.16 K	195.28 ± 3
314.14 K	196.15 ± 3
315.15 K	197.1 ± 3
316.16 K	198.01 ± 3.1
317.14 K	198.91 ± 3.1
318.15 K	199.88 ± 3.1
319.15 K	200.81 ± 3.1
320.14 K	201.63 ± 3.1
321.15 K	202.63 ± 3.1
322.15 K	203.57 ± 3.1
323.14 K	204.44 ± 3.2
324.15 K	205.36 ± 3.2
325.15 K	206.28 ± 3.2
326.16 K	207.24 ± 3.2
327.15 K	208.09 ± 3.2
328.15 K	209.05 ± 3.2
329.14 K	209.96 ± 3.2
330.14 K	210.87 ± 3.3
331.15 K	211.73 ± 3.3
332.14 K	212.64 ± 3.3
333.14 K	213.55 ± 3.3
334.15 K	214.51 ± 3.3
335.16 K	215.32 ± 3.3
336.14 K	216.18 ± 3.4
337.15 K	217.08 ± 3.4
338.16 K	218.05 ± 3.4
339.14 K	218.88 ± 3.4
340.15 K	219.81 ± 3.4
341.16 K	220.6 ± 3.4
342.14 K	221.48 ± 3.4
343.15 K	222.33 ± 3.4
344.16 K	223.27 ± 3.5
345.14 K	224.05 ± 3.5
346.15 K	224.85 ± 3.5
347.16 K	225.68 ± 3.5
348.14 K	226.51 ± 3.5
349.15 K	227.32 ± 3.5
350.15 K	228.13 ± 3.5
351.14 K	228.9 ± 3.5
352.15 K	229.66 ± 3.6
353.15 K	230.44 ± 3.6
